62 compounds from ChEMBL document CHEMBL1697723, “A predictive ligand-based Bayesian model for human drug-induced liver injury” (Drug Metab Dispos, 2010) can be followed below.

Structures are written as SMILES.

The data set deals with Hepatotoxicity. Briefly: Human drug-induced liver injury (DILI) modelling dataset from Ekins et al.

Consider `CN1C[C@H](C(=O)N[C@]2(C)O[C@@]3(O)[C@@H]4CCCN4C(=O)[C@H](Cc4ccccc4)N3C2=O)C=C2c3cccc4[nH]cc(c34)C[C@H]21.CN1C[C@H](C(=O)N[C@]2(C)O[C@@]3(O)[C@@H]4CCCN4C(=O)[C@H](Cc4ccccc4)N3C2=O)C=C2c3cccc4[nH]cc(c34)C[C@H]21.O=C(O)C(O)C(O)C(=O)O` [ERGOTAMINE TARTRATE], for which the Hepatotoxicity entry is on record as “DILI negative (test set)”.

Turning to `CN1CCC(=C2c3ccccc3CCc3cccnc32)CC1.O=C(O)/C=C\C(=O)O.O=C(O)/C=C\C(=O)O` [AZATADINE MALEATE], the Hepatotoxicity entry is reported as “DILI positive (test set)”.

On to `C[N+](C)(C)CC(=O)O.[Cl-]` [BETAINE HYDROCHLORIDE], for which the Hepatotoxicity entry is given as “DILI negative (test set)”.

Take `NC(=O)N1c2ccccc2C=Cc2ccccc21` [CARBAMAZEPINE]: the Hepatotoxicity result was “DILI positive (test set)”.

On to `CC1(C)[C@@H](OC(=O)CCC(=O)[O-])CC[C@]2(C)[C@H]3C(=O)C=C4[C@@H]5C[C@@](C)(C(=O)[O-])CC[C@]5(C)CC[C@@]4(C)[C@]3(C)CC[C@@H]12.[Na+].[Na+]` [CARBENOXOLONE SODIUM], for which the Hepatotoxicity result was “DILI negative (training set)”.

On to `OC[C@@H](O)[C@@H](O)[C@H](O)[C@@H](O)CO` [SORBITOL], for which the Hepatotoxicity result was “DILI negative (training set)”.

On to `Cc1cn([C@H]2C[C@H](N=[N+]=[N-])[C@@H](CO)O2)c(=O)[nH]c1=O` [ZIDOVUDINE], for which the Hepatotoxicity result is “DILI positive (training set)”.

As for `CC(C(=O)[O-])c1cccc(Oc2ccccc2)c1.[Na+]` (configuration not stated) [FENOPROFEN SODIUM], the Hepatotoxicity entry is given as “DILI positive (training set)”.

For the compound `Nc1ccn([C@@H]2CS[C@H](CO)O2)c(=O)n1` [LAMIVUDINE], the Hepatotoxicity entry was “DILI negative (training set)”.

Regarding `CN(C)CCC(c1ccc(Br)cc1)c1ccccn1.O=C(O)/C=C\C(=O)O` (configuration not stated) [BROMPHENIRAMINE MALEATE], the Hepatotoxicity entry is reported as “DILI negative (training set)”.

As to `COc1cc(C)c(/C=C/C(C)=C/C=C/C(C)=C/C(=O)O)c(C)c1C` [ACITRETIN], the Hepatotoxicity entry was “DILI positive (training set)”.

Consider `Cc1cc(NC(=O)C2=C(O)c3ccccc3S(=O)(=O)N2C)no1` [ISOXICAM], for which the Hepatotoxicity entry is “DILI negative (test set)”.

As for `O=[N+]([O-])c1ccc(O)c([N+](=O)[O-])c1` [2,4-DINITROPHENOL], the Hepatotoxicity result is given as “DILI positive (test set)”.

As for `CCOc1ccc(NC(C)=O)cc1` [PHENACETIN], the Hepatotoxicity result is reported as “DILI positive (training set)”.

In the case of `Cc1scc2c1N(C(=O)CN1CCN(C)CC1)c1ccccc1NC2=O` [TELENZEPINE], the Hepatotoxicity entry was “DILI negative (test set)”.

In the case of `CC(=O)OCC(=O)[C@@]1(O)CC[C@H]2[C@@H]3CCC4=CC(=O)CC[C@]4(C)[C@@]3(F)[C@@H](O)C[C@@]21C` [FLUDROCORTISONE ACETATE], the Hepatotoxicity result is recorded as “DILI negative (training set)”.

`CS(=O)(=O)CCNCc1ccc(-c2ccc3ncnc(Nc4ccc(OCc5cccc(F)c5)c(Cl)c4)c3c2)o1` [LAPATINIB]: the Hepatotoxicity entry is given as “DILI positive (test set)”.

On to `Cn1c(=O)c2c(ncn2C)n(C)c1=O` [CAFFEINE], for which the Hepatotoxicity result is “DILI negative (test set)”.

With `C[C@]12C=CC(=O)C=C1CC[C@@H]1[C@@H]2C(=O)C[C@@]2(C)[C@H]1CC[C@]2(O)C(=O)CO` [PREDNISONE], the Hepatotoxicity entry is reported as “DILI negative (training set)”.

Turning to `Nc1ccc(S(=O)(=O)NC(=O)c2ccccc2)cc1` [SULFABENZAMIDE], the Hepatotoxicity result was “DILI negative (test set)”.

Turning to `C[C@H](CCC(=O)O)[C@H]1CC[C@H]2[C@@H]3CC[C@@H]4C[C@H](O)CC[C@]4(C)[C@H]3CC[C@]12C` [LITHOCHOLIC ACID], the Hepatotoxicity result is “DILI positive (training set)”.

For `CCCc1nc2c(C)cc(-c3nc4ccccc4n3C)cc2n1Cc1ccc(-c2ccccc2C(=O)O)cc1`, the Hepatotoxicity result is recorded as “DILI negative (training set)”.

Take `NN` [HYDRAZINE]: the Hepatotoxicity entry was “DILI positive (test set)”.

On to `CCOC(=O)[C@H](CCc1ccccc1)N[C@H]1CCc2ccccc2N(CC(=O)O)C1=O` [BENAZEPRIL], for which the Hepatotoxicity entry is on record as “DILI negative (training set)”.

`CC(=O)OCC1=C(C(=O)[O-])N2C(=O)[C@@H](NC(=O)CSc3ccncc3)[C@H]2SC1.[Na+]` [CEPHAPIRIN SODIUM]: the Hepatotoxicity entry is given as “DILI negative (test set)”.

For the compound `CC1(C)S[C@@H]2[C@H](NC(=O)[C@H](N)c3ccc(O)cc3)C(=O)N2[C@H]1C(=O)O` [AMOXICILLIN], the Hepatotoxicity entry was “DILI negative (test set)”.

Take `O=C1CCC(=O)N1c1cc(Cl)cc(Cl)c1` [DIMETHACHLON]: the Hepatotoxicity result is given as “DILI positive (test set)”.

For the compound `CC1CN(c2cc3c(cc2F)c(=O)c(C(=O)O)cn3-c2ccc(F)cc2F)CCN1` (configuration not stated) [TEMAFLOXACIN], the Hepatotoxicity entry is given as “DILI positive (test set)”.

`CNCCCC12CCC(c3ccccc31)c1ccccc12` [MAPROTILINE]: the Hepatotoxicity entry (Liver) was “DILI negative (training set)”.

As to `O=C(O)P(=O)(O)O` [FOSCARNET], the Hepatotoxicity entry is on record as “DILI negative (test set)”.

For `CCN(CC)CCOc1ccc(C(=C(Cl)c2ccccc2)c2ccccc2)cc1` [CLOMIPHENE], the Hepatotoxicity entry was “DILI positive (training set)”.

As to `O=C(O)CCCC[C@@H]1SC[C@@H]2NC(=O)N[C@@H]21` [BIOTIN], the Hepatotoxicity result is recorded as “DILI negative (training set)”.

For the compound `NCCBr` [BROMOETHANAMINE], the Hepatotoxicity result is “DILI positive (test set)”.

As for `CC(C)(C)NC(=O)[C@@H]1CN(Cc2cccnc2)CCN1C[C@@H](O)C[C@@H](Cc1ccccc1)C(=O)N[C@H]1c2ccccc2C[C@H]1O.O=S(=O)(O)O` [INDINAVIR SULFATE], the Hepatotoxicity entry is reported as “DILI negative (test set)”.

For `CN/C(=N/CCSCc1nc[nH]c1C)NC#N` [CIMETIDINE], the Hepatotoxicity result (Liver) is on record as “DILI negative (training set)”.

Take `CC(C)(C)NC[C@H](O)COc1ccccc1C1CCCC1.CC(C)(C)NC[C@H](O)COc1ccccc1C1CCCC1.O=S(=O)(O)O` [PENBUTOLOL SULFATE]: the Hepatotoxicity result was “DILI positive (test set)”.

Regarding `Cl.Clc1cccc(Cl)c1NC1=NCCN1` [CLONIDINE HYDROCHLORIDE], the Hepatotoxicity entry (Liver) was “DILI positive (training set)”.

Consider `Nc1ccc(S(N)(=O)=O)cc1` [SULFANILAMIDE], for which the Hepatotoxicity entry (Liver) is recorded as “DILI positive (test set)”.

Take `CCO[C@@H](Cc1ccc(OCCN2c3ccccc3Oc3ccccc32)cc1)C(=O)O` [RAGAGLITAZAR]: the Hepatotoxicity entry is recorded as “DILI negative (test set)”.

Regarding `Nc1nc(NC2CC2)c2ncn([C@H]3C=C[C@@H](CO)C3)c2n1` [ABACAVIR], the Hepatotoxicity result is reported as “DILI positive (test set)”.

For `CCSCC[C@H](N)C(=O)O` [ETHIONINE], the Hepatotoxicity entry was “DILI positive (training set)”.

On to `COc1ccc(C[C@H](N)C(=O)N[C@H]2[C@@H](O)[C@H](n3cnc4c(N(C)C)ncnc43)O[C@@H]2CO)cc1` [PUROMYCIN], for which the Hepatotoxicity result is “DILI positive (training set)”.

As for `CC[C@H]1OC(=O)[C@H](C)[C@@H](O[C@H]2C[C@@](C)(OC)[C@@H](O)[C@H](C)O2)[C@H](C)[C@@H](O[C@@H]2O[C@H](C)C[C@H](N(C)C)[C@H]2O)[C@](C)(O)C[C@@H](C)C(=O)[C@H](C)[C@@H](O)[C@]1(C)O` [ERYTHROMYCIN], the Hepatotoxicity entry is reported as “DILI negative (training set)”.

Take `CO[C@H]1C[C@H](O[C@H]2[C@H](C)[C@@H](O[C@@H]3O[C@H](C)C[C@H](N(C)C)[C@H]3OC(C)=O)[C@@H](C)C[C@@]3(CO3)C(=O)[C@H](C)[C@@H](OC(C)=O)[C@@H](C)[C@@H](C)OC(=O)[C@@H]2C)O[C@@H](C)[C@@H]1OC(C)=O` [TROLEANDOMYCIN]: the Hepatotoxicity result is “DILI positive (test set)”.

As for `Cc1nc(C)c2c(n1)N(Cc1ccc(-c3ccccc3-c3nnn[nH]3)cc1)C(=O)CC2` [TASOSARTAN], the Hepatotoxicity result is reported as “DILI positive (test set)”.

With `CCN(CC)CCCC(C)Nc1ccnc2cc(Cl)ccc12.O=P(O)(O)O.O=P(O)(O)O` (configuration not stated) [CHLOROQUINE PHOSPHATE], the Hepatotoxicity entry is “DILI negative (test set)”.

Take `CC1(c2ccccc2)Cc2cc(OCC(=O)O)c(Cl)c(Cl)c2C1=O` (configuration not stated) [INDACRINONE]: the Hepatotoxicity result was “DILI positive (test set)”.

As for `CCCC(C)(COC(N)=O)COC(N)=O` [MEPROBAMATE], the Hepatotoxicity result is listed as “DILI positive (test set)”.

Consider `NC(=O)NO` [HYDROXYUREA], for which the Hepatotoxicity result is “DILI positive (training set)”.

Take `NC[C@H]1O[C@H](O[C@H]2[C@H](O)[C@@H](O[C@H]3O[C@H](CO)[C@@H](O)[C@H](N)[C@H]3O)[C@H](N)C[C@@H]2N)[C@H](N)C[C@@H]1O` [TOBRAMYCIN]: the Hepatotoxicity result is given as “DILI positive (test set)”.

`CC1=C(/C=C/C(C)=C/C=C/C(C)=C/C(=O)O)C(C)(C)CCC1` [TRETINOIN]: the Hepatotoxicity result is on record as “DILI positive (training set)”.

Consider `CCOC(=O)Nc1ccc2c(c1)N(C(=O)CCN1CCOCC1)c1ccccc1S2.Cl` [MORICIZINE HYDROCHLORIDE], for which the Hepatotoxicity entry was “DILI positive (test set)”.

`OCC(S)CS` (configuration not stated) [DIMERCAPROL]: where the note is “Liver”, the Hepatotoxicity result was “DILI positive (test set)”.

For the compound `CN1C(C(=O)Nc2ccccn2)=C(O)c2ccccc2S1(=O)=O` [PIROXICAM], the Hepatotoxicity entry was “DILI positive (training set)”.

On to `O=C(O)c1cc(-c2ccc(F)cc2F)ccc1O` [DIFLUNISAL], for which, under “Liver”, the Hepatotoxicity entry is on record as “DILI positive (training set)”.

With `C#CC1(O)CC[C@H]2[C@@H]3CCC4=CC(=O)CC[C@@H]4[C@H]3CC[C@@]21CC` (some centres not stated) [NORGESTREL], under “Liver”, the Hepatotoxicity entry is recorded as “DILI positive (training set)”.

For `CC(C)(Oc1ccc(C2CC2(Cl)Cl)cc1)C(=O)O` (configuration not stated) [CIPROFIBRATE], the Hepatotoxicity entry is “DILI positive (training set)”.

With `COc1cc(NC(C)CCCN)c2ncccc2c1.O=P(O)(O)O.O=P(O)(O)O` (configuration not stated) [PRIMAQUINE PHOSPHATE], the Hepatotoxicity entry is “DILI negative (training set)”.

On to `N[C@H](C(=O)O)[C@@H]1CC(Cl)=NO1` [ACIVICIN], for which the Hepatotoxicity entry is given as “DILI negative (training set)”.

Turning to `CC(c1cc2ccccc2s1)N(O)C(N)=O` (configuration not stated) [ZILEUTON], the Hepatotoxicity entry is listed as “DILI positive (training set)”.

On to `C[C@@](Cc1ccc(O)c(O)c1)(NN)C(=O)O.O` [CARBIDOPA], for which the Hepatotoxicity entry is recorded as “DILI negative (training set)”.

With `Nc1ccc(O)cc1` [4-AMINOPHENOL], the Hepatotoxicity entry is “DILI negative (test set)”.
